# In patent US10785978B2, “Control and repellency of biting flies, house flies, ticks, ants, fleas, biting midges, cockroaches, spiders and stink bugs” (priority 2012, dated 2020):
# Tests used:
# Format in all cases: in vivo
# [1] = test system: sand flies P. papatasi; test: Sand fly bite test on treated human skin with K&D module; details: for percent biting, Treatment level 5%: 5% compound in isopropyl alcohol on human skin; for sand flies repelled: at 5%
# Method: Control against sand flies was determined by the following protocol as generally described in J. Med. Entomol. 43 (6), 1248-1252 (2006). Volunteers wearing short pants were seated. Using a skin-marking template and a washable-ink marker, skin areas represented by 3- by 4-cm floor opening of six cells of a K&D module were outlined on the outer, top and inner thigh position of each leg of the volunteers. The six treated cell rectangles each represented a random block, and each volunteer had three blocks on each of two thighs. All treatments against the sand flies P. papatasi, were pipetted onto a 4- by 5-cm rectangular area (so the area of skin covered by a treatment exceeded the template marks by 0.5 cm in every direction) of the subjects' skin with 55 ul of isopropyl alcohol/treatment containing 10% or 5% compound/ul isopropyl alcohol. Treating a slightly larger area ensured that the areas beneath each K&D module contained only treated skin. Skin treated with isopropyl alcohol alone served as control. In all tests adjacent cells of the K&D module were supplied with ten sand flies. The sand fly charged K&D module was positioned over the treated skin areas and the trap doors of the K&D module above the areas were opened. After a five minute skin exposure the trap doors were closed. The number of sand fly bites was recorded for each cell. The percent biting is the percent compared to the biting for the control which was taken as 100%.
# [2] = test system: house flies; test: House fly repellency on treated filter paper food trays in cages; details: 5% in isopropyl alcohol; over 6 hours
# Method: The bottom of each cage was lined with brown craft paper and divided into 4 equal quadrants. Each quadrant housed a makeshift filter paper food tray. Two of the four filter papers were treated with repellent and two treated with isopropanol. Control cages contained filter papers that were treated with 4 filter papers of isopropanol only. The number of flies resting on filter paper per quadrant was recorded every 30 minutes for a total of 6 hours. Cages were rotated to eliminate positional bias. […] Each of the test samples were diluted in isopropyl alcohol.
# [3] = test system: Brown Dog Ticks; test: Second repellent assay against Brown Dog Ticks; details: 15% in isopropyl alcohol
# Method: Also, a second repellent assay was used to evaluate six test samples against Brown Dog Ticks. Five replicates of five ticks were given the opportunity to quest onto a vertical strip of untreated filter paper and then allowed to move upward toward a second vertical strip of filter paper treated with one of the six candidate repellents or DEET®. In the control situation, the second strip was treated with isopropanol. They were then observed for directional or behavioral changes caused in response to contact with the repellent. Ticks were recorded as either repelled or not repelled. Compounds were diluted in isopropyl alcohol. The percentages of ticks repelled are shown below in Table 6.
# [4] = test system: Brown Dog Ticks, Rhipicephalus sanguineus; details: in vivo
# From the text: The following protocol was employed to test compounds of this invention for toxicity (mortality) against ticks. There were 5 replicates of 5 dog ticks for each treatment. […] Filter paper strips were laid on a sheet of aluminum foil and enough of each of the test sample was applied to thoroughly saturate the paper. The paper was then rolled and placed inside a glass shell vial as to line the sides of the vial. A small paper disc, also saturated with the test sample, was then placed at the bottom of the vial. Brown Dog Ticks, Rhipicephalus sanguineus, were then introduced into the vials which were covered with aluminum foil, the inside of which was painted with some of the test sample. The ticks remained in the vials, constantly exposed to the test samples, for the duration of the test. A small hole was poked through the foil for ventilation. Each control replicate was subjected to the same procedures outlined above, except that they were not treated. The controls were placed in the same area as the test replicates for the duration of the test. Mortality observations were made at 24 hours. Ticks were classified as alive (able to move normally), moribund (those classified as moribund will show some movement, but will not be able to crawl in a coordinated manner, or will be unable to right themselves if placed on their backs), or dead (no movement after physical stimuli). All dead ticks were confirmed by probing or agitation to make sure that they are unable to move; any that show movement visible to the naked eye were recorded as moribund. At 24 hours the tick mortality was 0% for the control, 100% for γ-dodecalactone, 100% for methyl apritone and 76% for methyl dihydrojasmonate.
# [5] = test system: Pharaoh ants; test: Pharaoh ant behaviour at treated-untreated interface on poster board; details: 50% in acetone; 5 minutes after release
# Method: Pharaoh ants were tested using the following protocol. The side of a 17″×23″ rectangular sheet of poster board was sprayed with the test sample or acetone, except for a region within a 6″ circle. The treated poster board was allowed to dry. Five worker ants were placed in the center of the 6″ untreated circle and allowed to wander outside the circle onto the treated surface. The behavior of the ants at the treated-untreated interface was recorded for 5 minutes after release. Test compounds were diluted in acetone.
# [6] = test system: Black Widow spiders; test: Black Widow spider choice test in half-treated tube shelters; details: 5% in isopropanol; location after 24 hours
# Method: Control against Black Widow spiders was determined using the following protocol. One test container containing two card stock tube shelters, one half treated with a test sample and the other half treated with isopropanol was prepared. A spider was introduced in the center of the tube. The spider was then given a choice to move to one end of the shelters. The following day, its location is recorded and compared to the results from a shelter containing untreated half-shelters.
# On the day of the test one of the two shelters was sprayed with the test sample solution using a 2 oz pump spray bottle. Only the surfaces that the spider will most likely contact were treated. Therefore, only the inside of one of the shelter tubes, including the end disc (spiders will not be able to access the outside part of the shelter) were sprayed. The total amount of product was weighed and recorded. The treated surface was allowed to dry for a minimum of ½ hour, or until solvent could not be detected by smell. At this time the shelter tubes were assembled.
# Card stock paper tube shelters were constructed from 2 half-letter sized sheets (5½″×8½″) of paper, rolled and taped together to form a short tube. One end of each was covered with a circle of card stock paper, while the other end was later taped to the open end of the other half sheet, forming one long tube. […] The solvent-treated half was labeled with a “C” on the inner and outer walls with a pencil or a pen with solvent resistant ink. Prior to forming the final tube shelter, a semi-circular hole was cut into one of the margins of each sheet such that, once the two tubes are taped together, the holes correspond to the top and at the junction of the tubes for introduction of the spiders.
# Twenty-five arenas were prepared in this manner for each test sample. There were five replicates of five spiders. Twenty-five additional control arenas were also prepared. They were prepared the same way, except that areas to be sprayed were sprayed with isopropanol only.
# Replicates of five spiders were selected for each test formulation and for the control. The specimens were visually examined for overall physical condition. […] The spiders were transferred directly into the holding vials using flexible forceps or with a little coaxing with an artist brush. Because of their cannibalistic tendencies, each vial contained only one spider. There they were held until the time for testing.
# At the test start the spiders were placed directly in the middle, through the opening at the top of the shelter tube, and the opening covered, with only one spider per arena. […] They were left alone for 24 hours, after which time their location within the arena was recorded. Spiders present inside the shelter treated with the test repellent were considered tolerant.
# [7] = five minute exposure, percent of control biting taken as 100%
SMILES,"percent biting, Treatment level 5% [1, 7]","percent biting, Treatment level-10% ([1]; 10% compound in isopropyl alcohol on human skin, five minute exposure, percent of control biting taken as 100%)",sand flies repelled [1],Overall % Repellency [2],Mean % repelled [3],24 hr mortality (%) [4],tick mortality at 24 hours [4],% crossed without stopping [5],"% slowed, but crossed [5]",% stopped at interface [5],% Repellency [6]
"CCC(C)=CCCC(C)=CCC1CCCC1=O (stereo not drawn) [Methyl apritone, methyl apritone]",9.9%^,0%,90.1%,45%,100%,100%,100%,66%,2%,66%,37.5%
"CCCCCC1C(=O)CCC1CC(=O)OC (stereo not drawn) [Methyl dihydrojasmonate, methyl dihydrojasmonate]",0%,,100%,52%,100%,76%,76%,50%,20%,32%,87.5%
